Where two headings read alike, the source gives them in different places.
Columns and labels:
[1] = ethylene glycol/heptane, cited from earlier work
[2] = Stability to reductive cleavage / disulfide exchange by glutathione (GSH); format: in vitro ADME; conditions: pH 7.4, 37 °C
Text: We next examined the effect of our linkers on the biopharmaceutical properties of setmelanotide. The capacity of setmelanotide (SMT) to regulate appetite depends on its ability to penetrate the blood–brain barrier and to activate melanocortin-4 (MC4) receptors in the brain.[79],[80] Replacing the −SS– bond of SMT with more lipophilic −CC– linkages could improve the CNS permeability of SMT and could also enhance its proteolytic stability. […] For aqueous solubility, we measured solvation in deionized water (pH 6 at 25 °C). […] To assess cell permeability, we measured the partition coefficient Peh of our carbocyclic peptides in a mixture of ethylene glycol and heptane.[81]−[84] […] Thus, log Peh values are a good approximation of in vivo permeabilities. […]. Thus, many of our carbocyclic analogs should have improved (up to 2.6-fold) blood–brain penetrance in vivo. Finally, we determined the stability of our carbocyclic peptides to aqueous hydrolysis and to reductive cleavage by glutathione (GSH), an approximate measure of their plasma stability.[85] GSH in the cytoplasm can reduce disulfide bonds to dicysteine peptides and can also cleave disulfide bonds through a disulfide exchange reaction.[18]−[21] […] The products were analyzed by LC-MS. […]

[3] = Hydrolytic stability at pH 8.5, 50 °C, LC-MS analysis; format: physicochemical; conditions: 16 h
Text: (§1) We next examined the effect of our linkers on the biopharmaceutical properties of setmelanotide. The capacity of setmelanotide (SMT) to regulate appetite depends on its ability to penetrate the blood–brain barrier and to activate melanocortin-4 (MC4) receptors in the brain.[79],[80] […] To assess cell permeability, we measured the partition coefficient Peh of our carbocyclic peptides in a mixture of ethylene glycol and heptane.[81]−[84] […] Thus, log Peh values are a good approximation of in vivo permeabilities. […] Finally, we determined the stability of our carbocyclic peptides to aqueous hydrolysis and to reductive cleavage by glutathione (GSH), an approximate measure of their plasma stability.[85] GSH in the cytoplasm can reduce disulfide bonds to dicysteine peptides and can also cleave disulfide bonds through a disulfide exchange reaction.[18]−[21] […] All measurements were compared to setmelanotide (SMT).
(§2) (1 picture or pasted object on this page, not shown here)

[4] = Partition coefficient Peh in ethylene glycol/heptane (permeability, log Peh); format: physicochemical; conditions: UPLC peak area at 280 nm
Text: as §1, §2

[5] = common small molecule CNS drugs

In the case of `Cc1cc(=O)n(-c2ccccc2)n1C` [antipyrine], the “log Peh” value [1, 5] is given as −2.28.
For `NC(=O)c1ccccc1` [benzamide], the “log Peh” value ([1]; reference solutes quoted 'for reference') is given as −3.69.
In the case of `Clc1cccc(Cl)c1N=C1NCCN1` [clonidine], the “log Peh” value [1, 5] is listed as −1.80.
In the case of `c1cc(CN2CCCCC2)cc(OCCCNc2nc3ccccc3s2)c1` [zolantidine], the “log Peh” value [1, 5] is given as −1.47.
With setmelanotide [SMT] the “mixed disulfide formed (disulfide exchange)” value ([2]; 1 equiv. GSH, after 24 h) was 2%, the “mixed disulfide formed (disulfide exchange)” value ([2]; 10 equiv. GSH) was 17% and the “hydrolysis outcome (in words)” value [3] was “loss of a single sulfur atom”. For the same compound, the “log Peh” value [4] was −1.16.

Reference: publication PMC9686213, “Peptide Carbocycles: From −SS– to −CC– via a Late-Stage “Snip-and-Stitch”” (ACS Central Science, 2022)
